The text below walks through data of patent US9556202B2, “Sulfonamide derivatives and methods of use thereof for improving the pharmacokinetics of a drug” (MERCK SHARP & DOHME CORP., priority 2012, dated 2017).

For one experiment, the target named is T1, human CYP11B2 (Homo sapiens, UniProt P19099).
T1 construct: expressed in transfected cells
T1 sequence (P19099 25-503): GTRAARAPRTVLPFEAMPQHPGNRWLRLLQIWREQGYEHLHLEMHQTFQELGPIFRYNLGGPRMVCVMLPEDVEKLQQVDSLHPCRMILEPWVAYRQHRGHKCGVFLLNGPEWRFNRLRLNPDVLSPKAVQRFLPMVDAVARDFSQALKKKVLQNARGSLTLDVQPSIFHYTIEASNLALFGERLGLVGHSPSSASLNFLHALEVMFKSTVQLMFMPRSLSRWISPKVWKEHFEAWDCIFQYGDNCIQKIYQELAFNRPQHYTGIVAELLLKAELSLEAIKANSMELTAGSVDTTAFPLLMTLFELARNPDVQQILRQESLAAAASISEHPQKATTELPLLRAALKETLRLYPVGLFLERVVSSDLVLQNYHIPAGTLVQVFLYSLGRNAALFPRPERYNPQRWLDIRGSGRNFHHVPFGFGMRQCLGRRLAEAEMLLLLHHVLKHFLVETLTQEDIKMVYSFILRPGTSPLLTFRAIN
Put plainly: IC50 vs CYP11B2 by aldosterone synthesis in V79 cells (HTRF). To be noted: V79 cells expressing human CYP11B2, 750 nM DOC, test conc. 0.5-10000 nM, unit inferred. The format is cell-based. On the procedure: (§1) Determination of IC50 Vs CYP11B1/CYP11B2 by Measurement of Cortisol/Aldosterone Synthesis
(§2) This assay was performed in a standard 384-well plate design using cultured V79 cells stably expressing human CYP11B1 or human CYP11B2. Test compounds at 10 concentrations (for example, 10000, 3333.3, 1111.1, 370.4, 123.5, 41.2, 13.7, 4.6, 1.5 and 0.5 nM) were added in 384-well plate after the cell-seeding procedure. The incubation substrate contains 1500 nM RSS for CYP11B1 assay/750 nM DOC for CYP11B2 assay. The Cortisol/Aldosterone production of cell culture supernatant was determined by Cortisol/Aldosterone HTRF kit after for about 15 hours incubation at RT (protect from light). IC50 values were calculated from the percent inhibition observed for each test compound at 10 concentrations.
(§3) The assay plate was read using Envision (Perkin Elmer, Waltham, Mass.) at 665 nm and 590 nm (using Filter Barcode of 217#, 205#; Mirror Barcode of 446#).
(§4) Data are analyzed using Assay Data Analyzer. All ratio data (665 nm/590 nm) are back calculated according to the standard curve, resulting in Cortisol/Aldosterone concentrations. IC50 values are reported as the Inflection Point (IP) of a four parameter fit of the titration data.
(§5) The following equation was used to calculate the % inhibition: % Activity=100×{1−(Sample_back calculated Cortisol/Aldosterone concentration−LC_back calculated Cortisol/Aldosterone concentration)/(HC_back calculated Cortisol/Aldosterone concentration−LC_back calculated Cortisol/Aldosterone concentration)} Curve Fitting: Four Parameter Logistic: […]

A further experiment addresses T2, human CYP11B1 (Homo sapiens, UniProt P15538).
T2 construct: expressed in transfected cells
T2 sequence (P15538 25-503): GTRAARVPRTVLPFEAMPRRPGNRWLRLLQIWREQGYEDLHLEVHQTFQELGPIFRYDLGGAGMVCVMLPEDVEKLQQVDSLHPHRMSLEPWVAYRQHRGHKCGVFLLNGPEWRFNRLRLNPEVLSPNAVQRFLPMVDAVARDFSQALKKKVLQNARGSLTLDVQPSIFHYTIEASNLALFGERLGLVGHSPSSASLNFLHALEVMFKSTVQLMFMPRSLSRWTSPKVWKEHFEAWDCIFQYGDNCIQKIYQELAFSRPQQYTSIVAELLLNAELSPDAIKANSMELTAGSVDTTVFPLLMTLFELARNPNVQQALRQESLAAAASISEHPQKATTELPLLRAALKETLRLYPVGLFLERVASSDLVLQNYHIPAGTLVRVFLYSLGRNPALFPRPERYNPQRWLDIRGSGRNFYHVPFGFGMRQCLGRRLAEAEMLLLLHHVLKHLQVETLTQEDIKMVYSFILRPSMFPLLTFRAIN
Put plainly: IC50 vs CYP11B1 by cortisol synthesis in V79 cells (HTRF). The format is cell-based. As to conditions: V79 cells expressing human CYP11B1, 1500 nM RSS, test conc. 0.5-10000 nM, unit inferred. On the procedure: as §1, §2, §3, §4, §5
(In general: In TR-FRET formats the signal depends on donor and acceptor labels being close together.)

On to `COCC(c1cncn1[C@H](C)c1ccc(F)cc1)N1CCN(S(=O)(=O)c2cnc(N3CCN(C)CC3)s2)CC1` (single isomer, unassigned) [Compound 35], for which the values for the IC50 against human CYP11B2 and against human CYP11B1 were 5 µM and 2180 nM, respectively.

`COCCC(c1cncn1[C@H](C)c1ccc(F)cc1)N1CCN(S(=O)(=O)c2cnc(N3CCN(C)CC3)s2)CC1` (single isomer, unassigned) [Compound 36]: the half-inhibitory concentration (IC50) (in general, the midpoint of a concentration-inhibition curve) on human CYP11B2 worked out at 3.83 µM; at human CYP11B1, 1350 nM.

For `C[C@H](c1ccc(F)cc1)n1cncc1C1CCCC2CN(S(=O)(=O)c3cnc(Nc4ccccn4)s3)CCN21` (single isomer, unassigned) [Compound 38], the values for the half-inhibitory concentration (IC50) against human CYP11B2 and at human CYP11B1 were 1.31 µM and 2140 nM, respectively.
